In patent US7132554B2, “Therapeutic synergy of anti-cancer compounds” (Bristol-Myers Squibb Company, priority 2004, dated 2006):

Legend:
[1] = tested on: Human GEO colon carcinoma xenografts; details: known from earlier work; cited from earlier work
[2] = tested on: Human GEO colon carcinoma xenografts; test: Antitumor testing versus s.c. GEO colon carcinoma xenografts in nude mice; type: in vivo; parameters: key: Treatment resulting in more than one death is described as “TOX” (i.e., toxic); details: q3dx6 from Day 11
Protocol: (§1) Compounds. The oral taxane (Ia) was synthesized by Bristol-Myers Squibb (BMS) chemists. The compound was dissolved initially in equal portions of Cremophor EL and ethanol, followed by aqueous dilution to yield final ethanol and Cremophor EL concentrations of 10%.
(§2) Animals. Athymic (“nude”) mice, 5–6 weeks of age, purchased from Harlan Sprague Dawley (Indianapolis, Ind.), were quarantined for ˜2 weeks before their use for tumor propagation and drug efficacy testing. They were fed food and water ad libitum. All studies involving these animals were conducted in accordance with NIH (Bethesda, Md.) and Bristol Myers-Squibb animal care and use guidelines.
(§3) Tumors. Human L2987 lung and GEO colon carcinomas were maintained in nude mice by serial s.c. passage. All efficacy testing involved tumors implanted s.c. in nude mice.
(§4) Antitumor Testing. A detailed description of the methods used to assess antitumor effects has been provided previously in Rose, W. C., Fairchild, C., and Lee, F. Y. F. Preclinical antitumor activity of two novel taxanes. Cancer Chemother. Pharmacol. 47: 97–105, 2001. […] Delays in tumor growth are also converted to log cell kill (LCK) values by methods described in the same article. Statistical evaluations of data were performed using Gehan's generalized Wilcoxon test for comparisons of time to reach tumor target size. Statistical significance was declared at P<0.05. Group sizes typically consisted of eight mice. Activity was defined as ≧1 LCK.
(§5) Definitions of MTD and OD have been published previously in the above-noted article. Therapeutic results were reported at the OD, i.e., that yielding the best effect without exceeding the MTD. Therapeutic synergy represents a therapeutic effect achieved with a tolerated regimen of a combination treatment that exceeds the optimal effect achieved at any tolerated dose of monotherapy associated with the same drugs used in the combination. Cured mice are defined as those whose tumors are ≦35 mg when assessed 10 tumor volume doubling times (based on control tumor growth between 500 mg and 1 g) post-termination of treatment. A regimen was described as “toxic” if more than one mouse died during or within 10 days following the final drug treatment, or anytime after the initiation of drug therapy whose tumor size at the time of death was below 1 g.

[3] = Tolerability (body weight change, deaths, MTD) in nude mice bearing GEO tumors; type: in vivo
Protocol: as §1, §2, §5

[4] = tested on: Human L2987 lung carcinoma xenografts; test: Antitumor testing versus s.c. L2987 lung carcinoma xenografts in nude mice; type: in vivo; details: for T-C: tumor target 1.0 g
Protocol: as §1, §2, §3, §4, §5

[5] = Tolerability (body weight change, deaths, MTD) in nude mice bearing L2987 tumors; type: in vivo
Protocol: as §1, §2, §5

[6] = Phase I clinical trial, weekly schedule of administration; type: in vivo, human
Source text: The preclinical activity of Compound Ia was observed using several different schedules, with an intermittent administration regimen being optimal in one carefully examined tumor model. […] Heavily pretreated patients, typically having received two or three prior chemo/radiotherapies, have responded to weekly Compound Ia. All but one of the several responding patients had NSCLC, and all but one of these had previously received either a parenteral taxane or a small molecule anti-EGFR compound, gefitinib, or both. The purpose of our current investigations was to evaluate this oral taxane versus preclinical human tumor models using a multiple administration treatment regimen, in combination with an inhibitor of EGFR.

[7] = confirmatory study, q3dx6 from Day 20, Compound Ia 40 mg/kg/adm p.o.
[8] = confirmatory study, q3dx6 from Day 20, Compound Ia 60 mg/kg/adm p.o.
[9] = pilot study, q3dx4 from Day 22, Compound Ia 40 mg/kg/adm p.o.
[10] = pilot study, q3dx4 from Day 22, Compound Ia 60 mg/kg/adm p.o.

COc1cc2ncnc(Nc3ccc(F)c(Cl)c3)c2cc1OCCCN1CCOCC1 [gefitinib]
Responsiveness of the GEO tumor model [1]: responsive

COC(=O)OC12COC1CC(O)C1(C)C(=O)C(OC(C)=O)C3=C(C)C(OC(=O)C(O)C(NC(=O)OC(C)(C)C)C(C)(C)C)CC(O)(C(OC(=O)c4ccccc4)C21)C3(C)C (centres unmarked) [Compound Ia]
LCK (log cell kill) ([2]; Compound Ia 40 mg/kg/adm p.o.): 0.3 | T-C ([2]; Compound Ia 40 mg/kg/adm p.o., tumor target 1.0 g): 4.0 days | LCK (log cell kill) ([2]; Compound Ia 60 mg/kg/adm p.o.): 0.7 | T-C ([2]; Compound Ia 60 mg/kg/adm p.o., tumor target 1.0 g): 10.0 days | LCK (log cell kill) ([2]; Compound Ia 90 mg/kg/adm p.o.): TOX | T-C ([2]; Compound Ia 90 mg/kg/adm p.o.): TOX | MTD ([3]; p.o., q3dx6): 60 mg/kg/adm | Average body weight change ([3]; q3dx6 from Day 11, Compound Ia 40 mg/kg/adm p.o.): -2.6 g | Average body weight change ([3]; q3dx6 from Day 11, Compound Ia 60 mg/kg/adm p.o.): -1.8 g | dead/total ([3]; q3dx6 from Day 11, Compound Ia 90 mg/kg/adm p.o.): (3/8) | LCK (log cell kill) [4, 7]: 0.5 | T-C [4, 7]: 14.5 days | LCK (log cell kill) [4, 8]: 1.0 | T-C [4, 8]: 28.0 days | LCK (log cell kill) [4, 9]: 0.2 | T-C [4, 9]: 5.5 days | LCK (log cell kill) [4, 10]: 0.6 | T-C [4, 10]: 14.0 days | Average body weight change [5, 7]: 1.5 g | Average body weight change [5, 8]: -0.9 g | MTD, cumulative exposure ([5]; confirmatory study, 60 mg/kg/adm p.o. q3dx6, tolerated with minimal body weight loss): 360 mg/kg | historical MTD, cumulative exposure ([5]; p.o., established using a schedule similar to q3dx4): approximately 300 mg/kg | Average body weight change [5, 9]: 0.7 g | Average body weight change [5, 10]: 1.0 g | Clinical toxicity [6]: manageable toxicity
